Each structure is given as a SMILES string. Values joined by “and” are separate entries in the source; they are usually repeats but may differ in a detail not shown here. Equal entries are not always repeated. Some results are limits rather than exact numbers.

Assay [1] concerns Hep3B human hepatocarcinoma cells. Briefly: Cell proliferation assay (presto blue, 72 h). The class given is cell-based. The settings on record: for Hep3B cell proliferation compared to control, compound alone: 100 μM; for Hep3B cell proliferation compared to control, compound alone / IC50 / inhibition of Hep3B cell proliferation in combination with lenvatinib vs each agent alone / inhibition of Hep3B cell proliferation in combination with regorafenib vs individual effects / inhibition of Hep3B cell proliferation in combination with sorafenib vs each agent alone: 72 h; for IC50: Homo sapiens, Hep3B, read-out: Hep3B (IC50), anti-proliferation activity; for inhibition of Hep3B cell proliferation in combination with lenvatinib vs each agent alone: compound 100 μM + lenvatinib 0.5 μM; for inhibition of Hep3B cell proliferation in combination with regorafenib vs individual effects: compound 100 μM + regorafenib 1.5 μM; for inhibition of Hep3B cell proliferation in combination with sorafenib vs each agent alone: compound 100 μM + sorafenib 3 μM. On the procedure:
Cell cultures. Hep3B (ATCC) and Hepa1-6 (ATCC) cells were seeded in 96-well plates at a density of 3000 cells/well with complete media. On day 2, media in each well was aspirated and replaced with 100 μl of fresh complete media and cells were treated with or without Compound I-1, Compound I-32, Compound I1-84, and Compound I-85, in a concentration dependent manner. Then, cells were incubated in an incubator for 72 h. On day 5, 10 μl of presto blue (Invitrogen, cat #A13261) cell viability reagent was added in each 96-well plate and incubated at 37° C. for 1-2 h. After incubation, fluorescence was measured with an excitation/emission wavelength of 560/590 nm.
Proliferation assay. Hep3B (ATCC) and Hepa1-6 (ATCC) cells were seeded in 96-well plates at a density of 3000 cells/well with complete media. On day 2, media in each well was aspirated and replaced with 100 μl of fresh complete media and cells were treated with/without testing compounds in a concentration dependent manner. Then, cells were incubated in an incubator for 72 h. On day 5, 10 μl of presto blue (Invitrogen, cat #A13261) cell viability reagent was added in each 96-well plate and incubated at 37° C. for 1-2 h. After incubation, fluorescence was measured with an excitation/emission wavelength of 560/590 nm. Anti-proliferative combination effects of Compound I-1 or Compound I-32 and regorafenib were determined in Hep3B and Hepa1-6 cells. Drug combination interaction was determined by the Chou-Talalay method (23), which is based on well-known equations for different reaction sequences and mechanisms, and different types of inhibition. These equations provide the theoretical basis for the combination index (CI)-isobologram equation that allows quantitative determination of drug interactions, where CI<1, =1, and >1 indicate synergism, additive effect, and antagonism, respectively. CI is calculated based on in vitro measurements implemented in the Compusyn software (www.combosyn.com), a platform for drug combinations pharmacodynamics with automated simulations. The software calculates CI based on the Fractional Inhibition (Fa), which is the potency expressed by the average effect values for each drug concentrations as determined by in vitro experiments. The dose-effect data entries are utilized for automated computerized analysis by the Compusyn software.
Data entered was obtained by in vitro experiments performed as follows: Hep3B or Hepa 1-6 cells were plated in a 96-well format and cell proliferation rates were determined as described above. Cells were treated with 5 doses of each test agent alone at the following concentrations: compounds of the invention dosed at 1, 5, 10, 50, or 100 μM for both Hep3B and Hepa1-6 cells, regorafenib dosed at 0.015, 0.075, 0.15, 0.75, and 1.5 μM for Hep3B cells or 0.05, 0.25, 0.5, 2.5, 5 μM for Hepa 1-6 cells. […]. Data are shown as Fa-CI plots where CI is the combination index and Fa is fractional inhibition. Results were indicated as mean±standard deviation (SD). All bar diagrams and line graphs were prepared using Graph Pad Prism 8 software. Drug synergy was calculated using the CompuSyn software.
Methods: Hep3B cells (supplied by ATCC) and Hepa1-6 cells (supplied by ATCC) were seeded in 96-well plates at a density of 3000 cells/well with complete media. On day 2, the media in each well was aspirated and replaced with 100 μL of fresh complete media, and the cells were treated in a concentration dependent manner with either Compound I-1, Compound I-32, Compound I-84, Compound I-85, sorafenib, lenvatinib, Compound I-1 in combination with sorafenib. Compound I-1 in combination with lenvatinib, Compound I-32 in combination with sorafenib, or Compound I-32 in combination with lenvatinib. The cells were then incubated in an incubator at 37° C. for 72 h. On day 5, 10 μL of presto blue (Invitrogen, cat #A13261) cell viability reagent was added to each 96-well plate and incubated at 37° C. for 1-2 h. […]

In the next assay the target is T1, human ACLY (Homo sapiens, UniProt P53396).
T1 construct: human ACLY (P533%) (Met 1-Met 1101) expressed in Baculovirus-Insect Cells; purchased Sino Biological Inc. 11769-H07B; host or cells: Baculovirus-Insect Cells
Briefly: ATP-citrate lyase (ACLY) enzymatic assay (ADP-Glo). The class given is biochemical. The settings on record: recombinant human ACLY, Run 1-3, read-out: Compound IC50 (M) ACLY. On the procedure: ATP citrate lyase was obtained from Sino Biological Inc. Cat #11769-H07B, Lot #LC08DE1701. It was prepared from a DNA sequence encoding the human ACLY (P533%) (Met 1-Met 1101) expressed in Baculovirus-Insect Cells, with a polyhistidine tag at the N-terminus. The recombinant human ACLY consists of 1120 amino acids and has a calculated molecular mass of 123 kDa. It migrates as an approximately 110 kDa band in SDS-PAGE under reducing conditions. The enzyme came as a lyophilized powder in sterile 20 mM Tris, 500 mM NaCl, pH 8.0, 10% glycine. Normally 5%-8% trehalose and mannitol are added as protectants before lyophilization. […]
To detect ADP produced from ACL assay, the ADP-Glo™ assay format from Promega, Madison, Wis., was used, to detect the conversion of ATP to ADP. […] This assay is performed in two steps: i) after the ACL-mediated enzymatic reaction that utilizes ATP and produces ADP, ADP-Glo™ Reagent is added to terminate the kinase reaction and deplete the remaining ATP, and ii) the Kinase Detection Reagent is added to convert ADP to ATP and allow the newly synthesized ATP to be measured using a luciferase/luciferin reaction. The light generated, measured in a luminometer, correlates to the amount of ADP generated in the ACL assay, which is indicative of ACL activity. […]
For orientation: In ADP-Glo the light output rises with the ADP produced.

Turning to `CC(C)(CCCCc1ccc(CCCCC(C)(C)C(=O)O)cc1)C(=O)O` [Compound I-1, 6-[4-(5-carboxy-5-methylhexyl)-phenyl]-2,2-dimethylhexanoic acid], in assay [1], the “Hep3B cell proliferation compared to control, compound alone” value is on record as “inhibited Hep3B cell proliferation compared to control”; the IC50 is greater than 100000 nM; the “inhibition of Hep3B cell proliferation in combination with lenvatinib vs each agent alone” value was “significantly greater inhibition of Hep3B cell proliferation”; the “inhibition of Hep3B cell proliferation in combination with regorafenib vs individual effects” value is listed as “greater inhibition of cell proliferation compared to their individual effects”. In addition, the “inhibition of Hep3B cell proliferation in combination with sorafenib vs each agent alone” value in assay [1] is on record as “significantly greater inhibition of Hep3B cell proliferation”. Also, the “synergism with sorafenib (CompuSyn CI), Hep3B cells” value in assay [1] (compound 5 μM and sorafenib 0.15 μM) is reported as “Modest synergism”. Moreover, the “synergism with lenvatinib (CompuSyn CI), Hep3B cells” value in assay [1] (compound 10 μM and lenvatinib 0.05 μM) is recorded as “Moderate synergism”. Besides, the “synergism with lenvatinib (CompuSyn CI), Hep3B cells” value in assay [1] (compound and lenvatinib: 50 μM and 0.25 μM, 100 μM and 0.5 μM) is on record as “significant synergism”. The “synergism with sorafenib (CompuSyn CI), Hep3B cells” value in assay [1] (compound and sorafenib: 1 μM and 0.03 μM, 50 μM and 1.5 μM, 100 μM and 3 μM) is given as “significant synergism”.

For `CC(C)(CCCCc1ccc(CCCCC(C)(C)C(=O)SCCNC(=O)CCNC(=O)[C@H](O)C(C)(C)COP(=O)(O)OP(=O)(O)OC[C@H]2O[C@@H](n3cnc4c(N)ncnc43)[C@H](O)[C@@H]2OP(=O)(O)O)cc1)C(=O)O` [Compound I-1-CoA, 6-[4-(5-carboxy-5-methylhexyl)-phenyl]-2,2-dimethylhexanoic acid Coenzyme A ester], the IC50 at human ACLY is 3.34e-06 M and 2.28e-06 M and 2.5e-06 M.

As for `CC(C)(CCCCc1cccc(CCCCC(C)(C)C(=O)O)c1)C(=O)O` [Compound I-32, 6-[3-(5-carboxy-5-methylhexyl)-phenyl]-2,2-dimethylhexanoic acid], in assay [1], the “Hep3B cell proliferation compared to control, compound alone” value is given as “inhibited Hep3B cell proliferation compared to control”; the IC50 is greater than 100000 nM; the “inhibition of Hep3B cell proliferation in combination with lenvatinib vs each agent alone” value is listed as “significantly greater inhibition of Hep3B cell proliferation”; the “inhibition of Hep3B cell proliferation in combination with regorafenib vs individual effects” value is given as “greater inhibition of cell proliferation compared to their individual effects”. Also, the “inhibition of Hep3B cell proliferation in combination with sorafenib vs each agent alone” value in assay [1] was “significantly greater inhibition of Hep3B cell proliferation”. Also, in assay [1] (all tested concentrations: 1 μM and 0.05 μM, 5 μM and 0.15 μM, 10 μM and 0.3 μM, 50 μM and 1.5 μM, 100 μM and 3 μM), the “synergism with sorafenib (CI), Hep3B cells” value is reported as “synergism”. In assay [1] (compound 5 μM and lenvatinib 0.025 μM), the “synergism with lenvatinib (CompuSyn CI), Hep3B cells” value was “Modest synergism”. Further, the “synergism with lenvatinib (CompuSyn CI), Hep3B cells” value in assay [1] (compound and lenvatinib: 1 μM and 0.005 μM, 10 μM and 0.05 μM, 50 μM and 0.25 μM, 100 μM and 0.5 μM) is listed as “significant synergism”.

On to `CC(C)(CCCCc1cccc(CCCCC(C)(C)C(=O)SCCNC(=O)CCNC(=O)[C@H](O)C(C)(C)COP(=O)(O)OP(=O)(O)OC[C@H]2O[C@@H](n3cnc4c(N)ncnc43)[C@H](O)[C@@H]2OP(=O)(O)O)c1)C(=O)O` [Compound I-32-CoA, 6-[3-(5-Carboxy-5-methylhexyl)-phenyl]-2,2-dimethylhexanoic acid Coenzyme A Ester], for which the IC50 at human ACLY was 9.88e-07 M and 1.22e-06 M and 1.44e-06 M.

Source of the values: patent publication US11730712B2, “Functionalized long-chain hydrocarbon mono- and di-carboxylic acids and derivatives thereof, and their use for the prevention or treatment of disease” (ESPERVITA THERAPEUTICS, INC., priority 2021, dated 2023).
